Measured values taken from US20260250325A1, “Antiviral Polypeptide Membrane Fusion Inhibitor, and Preparation Method and Application Thereof” (priority 2025, published 2026).
pEC50, pKd: −log10 of the molar value. Where a SMILES comes first, the peptide text is derived from it. The star is where a group is joined. Succinyl(4-O-cholesteryl) = CC(C)CCC[C@@H](C)[C@H]1CC[C@H]2[C@@H]3CC=C4C[C@@H](OC(=O)CCC(=O)*)CC[C@]4(C)[C@H]3CC[C@]12C

Columns and labels:
[1] = biological target: T1, hMPV-N46 (127-172) (Human metapneumovirus, UniProt Q6WB98); assay: SPR affinity to hMPV-N46 coupled on CM5 chip; assay type: binding
T1 construct: hMPV-N46 (127-172)
T1 sequence (Q6WB98 127-172): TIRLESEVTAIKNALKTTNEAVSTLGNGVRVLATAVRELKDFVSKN

[2] = biological target: T2, hPIV-N51 (139-189) (Human parainfluenza 3 virus, UniProt P06828); assay: SPR affinity to hPIV-N51 coupled on CM5 chip; assay type: binding
T2 construct: hPIV-N51 (139-189)
T2 sequence (P06828 139-189): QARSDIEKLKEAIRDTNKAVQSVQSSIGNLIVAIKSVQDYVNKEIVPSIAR

[3] = test system: hMPV A2; assay type: cell-based; settings: Vero cells, plaque reduction
Method in brief: (§1)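 Plaque reduction in Vero cells (40000/well), 8 concentrations in duplicate; compound pre-mixed with ~200 PFU virus 1 h at 33° C, adsorbed 2 h at 37° C, then overlay with compound, 0.8% CMC, 5 μg/ml trypsin, 0.5% DMSO for 1 day at 33° C. Plaques immunostained (TrueBlue) and counted; EC50 by four-parameter fit.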

[4] = test system: hMPV B1; assay type: cell-based; settings: Vero cells, plaque reduction
Method in brief: as §1

Compound | pKd [1] | pKd [2] | pEC50 [3] | pEC50 [4]
CC[C@H](C)[C@H](NC(=O)[C@H](CCCCN)NC(=O)[C@H](CCCCN)NC(=O)[C@H](CC(C)C)NC(=O)[C@H](CO)NC(=O)[C@H](CCC(=O)O)NC(=O)[C@H](CCC(=O)O)NC(=O)[C@@H](NC(=O)[C@H](CCCCN)NC(=O)[C@H](CCCCN)NC(=O)[C@H](CC(N)=O)NC(=O)[C@@H](NC(=O)[C@H](CCC(=O)O)NC(=O)[C@H](CCC(=O)O)NC(=O)[C@@H](NC(=O)[C@H](CCCCN)NC(=O)[C@H](CCCCN)NC(=O)[C@H](CC(=O)O)NC(=O)[C@H](Cc1ccccc1)NC(=O)[C@H](CCC(=O)O)NC(=O)[C@H](CC(=O)O)NC(=O)[C@H](Cc1c[nH]c2ccccc12)NC(C)=O)[C@@H](C)CC)C(C)C)[C@@H](C)CC)C(=O)N[C@@H](CCC(=O)O)C(=O)N[C@@H](CCC(=O)O)C(=O)N[C@@H](CO)C(=O)N[C@@H](CC(=O)O)C(=O)N[C@@H](CCCCN)C(=O)N[C@@H](CCCCN)C(=O)N[C@@H](CC(C)C)C(=O)N[C@@H](Cc1c[nH]cn1)C(=O)N[C@@H](CC(N)=O)C(=O)N[C@H](C(=O)N[C@@H](CCC(=O)O)C(=O)N[C@@H](C)C(=O)N[C@@H](C)C(=O)N[C@@H](C)C(=O)N[C@@H](CCCCN)C(=O)N[C@@H](CCCCNC(=O)CCC(=O)O[C@H]1CC[C@@]2(C)C(=CC[C@H]3[C@@H]4CC[C@H]([C@H](C)CCCC(C)C)[C@@]4(C)CC[C@@H]32)C1)C(N)=O)C(C)C [Compound 44] (Ac-WDEFDKKIEEVNKKIEESLKKIEESDKKLHNVEAAAKK(Succinyl(4-O-cholesteryl))-NH2) | 6.83 | 5.16 | 7.84 | 8.18
CC[C@H](C)[C@H](NC(=O)[C@H](CO)NC(=O)[C@H](C)NC(=O)[C@H](CC(=O)O)NC(=O)[C@H](Cc1ccccc1)NC(=O)[C@H](CCC(=O)O)NC(=O)[C@H](CC(=O)O)NC(C)=O)C(=O)N[C@@H](CO)C(=O)N[C@@H](CCC(N)=O)C(=O)N[C@H](C(=O)N[C@@H](CC(N)=O)C(=O)N[C@@H](CCC(=O)O)C(=O)N[C@@H](CCCCN)C(=O)N[C@H](C(=O)N[C@@H](CC(N)=O)C(=O)N[C@@H](CCC(N)=O)C(=O)N[C@@H](CO)C(=O)N[C@@H](CC(C)C)C(=O)N[C@@H](CCC(=O)O)C(=O)N[C@@H](CCC(=O)O)C(=O)N[C@H](C(=O)N[C@@H](CCCNC(=N)N)C(=O)N[C@@H](CCCCN)C(=O)N[C@@H](CO)C(=O)N[C@@H](CC(=O)O)C(=O)N[C@@H](CCC(=O)O)C(=O)N[C@@H](CC(C)C)C(=O)N[C@@H](CC(C)C)C(=O)N[C@@H](Cc1c[nH]cn1)C(=O)N[C@@H](CC(N)=O)C(=O)N[C@@H](CCC(=O)O)C(=O)N[C@@H](C)C(=O)N[C@@H](C)C(=O)N[C@@H](C)C(=O)N[C@@H](CCCCN)C(=O)N[C@@H](CCCCNC(=O)CCC(=O)O[C@H]1CC[C@@]2(C)C(=CC[C@H]3[C@@H]4CC[C@H]([C@H](C)CCCC(C)C)[C@@]4(C)CC[C@@H]32)C1)C(N)=O)[C@@H](C)CC)[C@@H](C)CC)C(C)C [Compound 28] (Ac-DEFDASISQVNEKINQSLEEIRKSDELLHNEAAAKK(Succinyl(4-O-cholesteryl))-NH2) | 6.68 | 3.01 | 7.23 | 7.86
Ac-WDEFDASISQVNEKINQSLEEIRKSDELLHNVNALEAAAKK(Succinyl(4-O-cholesteryl))-NH2 [Compound 38] | 6.41 | 4.61 | 6.89 | 7.78
CC[C@H](C)[C@H](NC(=O)[C@H](CCCCN)NC(=O)[C@H](CCC(=O)O)NC(=O)[C@H](CC(C)C)NC(=O)[C@H](CO)NC(=O)[C@H](CCC(N)=O)NC(=O)[C@H](CC(N)=O)NC(=O)[C@@H](NC(=O)[C@H](CCCCN)NC(=O)[C@H](CCC(=O)O)NC(=O)[C@H](CC(N)=O)NC(=O)[C@@H](NC(=O)[C@H](CCC(N)=O)NC(=O)[C@H](CO)NC(=O)[C@H](C)NC(=O)[C@H](CC(=O)O)NC(=O)[C@H](Cc1ccccc1)NC(=O)[C@@H](NC(=O)[C@H](CC(C)C)NC(=O)[C@H](CCC(=O)O)NC(=O)[C@H](CC(=O)O)NC(=O)[C@H](Cc1ccc(O)cc1)NC(C)=O)C(C)C)C(C)C)[C@@H](C)CC)C(=O)N[C@@H](CCCNC(=N)N)C(=O)N[C@@H](CCCCN)C(=O)N[C@@H](CO)C(=O)N[C@@H](CC(=O)O)C(=O)N[C@@H](CCC(=O)O)C(=O)N[C@@H](CC(C)C)C(=O)N[C@@H](CC(C)C)C(=O)N[C@@H](Cc1c[nH]cn1)C(=O)N[C@@H](CC(N)=O)C(=O)N[C@H](C(=O)NCC(=O)N[C@@H](CO)C(=O)NCC(=O)N[C@@H](CO)C(=O)NCC(=O)N[C@@H](CCCCNC(=O)CCC(=O)O[C@H]1CC[C@@]2(C)C(=CC[C@H]3[C@@H]4CC[C@H]([C@H](C)CCCC(C)C)[C@@]4(C)CC[C@@H]32)C1)C(N)=O)C(C)C [Compound 25] (Ac-YDELVFDASQVNEKINQSLEKIRKSDELLHNVGSGSGK(Succinyl(4-O-cholesteryl))-NH2) | 4.68 | 4.13 | 7.06 | 7.42
